Legend:
Format in all cases: in vivo, human
YKL-40 (CHI3L1) = experiment: Plasma biomarker YKL-40; conditions: for YKL-40 (CHI3L1) raw data, Mean (SD) / YKL-40 (CHI3L1) least square means % baseline±SEM: IPF patients
Description: (§1) All patients, investigators, sites and study sponsor personnel were blinded to the study group assignments throughout the study. Patients underwent study-specific assessments on days 2, 3, 7, 14 and 15, and a post-study assessment was carried out 26–30 days after the last day of the study period. Assessments included vital signs (supine blood pressure, pulse, oxygen saturation, oral temperature and respiratory rate), spirometry, 12-lead ECG, physical examination, laboratory safety screen (haematology, biochemistry, urinalysis and urinary drugs of abuse screen) and blood sampling for PK measurements. All adverse events and concomitant medications were recorded from the time of the screening visit until the post-study follow-up visit. BAL was performed at day −1 (24 h before the first dose) and at day 14 (2 h after the last dose). The BAL procedure was performed as per international guidelines. Briefly, 240 mL of 0.9% saline at room temperature was instilled in 40 mL aliquots into the right middle lobe and aspirated by suction after each aliquot.
(§2) BAL cells were separated from fluid by centrifugation, and cells were collected, stained with antibodies (supplementary material) and then fixed before analysis using a LSR Fortessa flow cytometer (Becton Dickinson, Franklin Lakes, NJ, USA). Data were analysed using FlowJo software (Tree Star, Ashland, OR, USA). Macrophages were identified as having high side scatter properties and human leukocyte antigen-DR positivity. Gal-3 expression (mean fluorescence intensity) was determined from the macrophage gate (supplementary figures S1 and S2). […] Samples were analysed by magnetic Luminex assay (R&D Systems, Minneapolis, MN, USA) or ELISA.
(§3) For part 2 of the study, placebos were combined from the three dose-specific cohorts into a pooled control group (n=9). For alveolar macrophage Gal-3 expression and the plasma biomarkers, ANCOVA was performed for percentage of baseline ((day 14/day 1)×100). The ANCOVA model included effects for treatment group and baseline (day 1) value. […] An additional analysis including dose as a continuous covariate was also performed. The Pearson correlation coefficient (r) and associated p-value were calculated for percentage of baseline and day 14 values between plasma biomarkers and alveolar macrophage Gal-3 expression. […] The analysis is exploratory and there was no pre-planned adjustment for multiple testing; the study was not powered for this. Alveolar macrophage Gal-3 expression was considered the primary exploratory analysis with the pre-selected biomarkers secondary. A Bonferroni correction for multiple testing of the secondary end-points comparing the 10 mg group with placebo gives a critical value of 0.0063. Data are presented as the difference in least square means with 95% confidence interval and p-value unless otherwise stated. All analyses were performed using SAS version 9.4 (SAS Institute, Cary, NC, USA). […]

SP-D = experiment: Plasma biomarker SP-D; conditions: for SP-D raw data, Mean (SD) / SP-D least square means % baseline±SEM: IPF patients
Description: as §1, §2, §3

BAL cells = experiment: BAL cell classification and quantification (flow cytometry); conditions: any dose groups
Description: Dickinson, NJ, USA). Data were analysed using FlowJo software (Becton Dickinson, NJ, […]
identify cell populations based on surface marker expression. The antibodies used were Gal-3- […]
Biolegend except Gal-3-FITC which was from Cedarlane. Macrophages were identified as having high side scatter properties and HLA-DR positivity. Gal-3 expression (mean fluorescence intensity, MFI) was determined from the macrophage gate. Macrophage subsets […]
Plasma pharmacodynamic biomarkers
Secreted], CCL18 [pulmonary and activation-regulated chemokine], CCL26 [eotaxin], […]
A disease relevance score was
(supplementary table S2).
BAL cell classification and quantification
CD163 and CD206 expression (supplemental figure S2). […]
following treatment with TD139 in the high dose group.

TIMP-1 = experiment: Plasma biomarker TIMP-1; conditions: for TIMP1 raw data, Mean (SD) / TIMP-1 least square means % baseline±SEM: IPF patients
Description: as §1, §2, §3

patients with IPF = experiment: Safety and tolerability (TEAEs), part 2, once-daily inhaled dose for 14 days
Text: Following completion of dosing for the final subject in each dosing cohort, an interim dose review meeting was held with a safety committee consisting of the principal investigator, medical monitor, pharmacokineticist and statistician to review the safety, tolerability and PK data (study design schematic shown in figure 1). The study statistician and pharmacokineticist were unblinded at the end of each cohort in order to conduct the analyses required for dose review decisions. The primary end-point was the safety and tolerability of single or multiple doses of TD139 in healthy subjects or IPF patients, respectively.

[1] = IPF patients, inhaled 0.3 mg once daily 14 days
[2] = IPF patients, inhaled 3 mg once daily 14 days
[3] = IPF patients, inhaled 10 mg once daily 14 days

What does the source list for `OC[C@H]1O[C@@H](S[C@@H]2O[C@H](CO)[C@H](O)[C@H](n3cc(-c4cccc(F)c4)nn3)[C@H]2O)[C@H](O)[C@@H](n2cc(-c3cccc(F)c3)nn2)[C@H]1O` [TD139]?
YKL-40 (CHI3L1) difference in least square means % baseline (95% CI) (YKL-40 (CHI3L1); 10 mg vs placebo, ANCOVA): −28.9 (−55.9– −1.9) % baseline; YKL-40 (CHI3L1) raw data, Mean (SD) (YKL-40 (CHI3L1); Day 14, 0.3 mg): 45140.2 (34041.85) pg/ml; YKL-40 (CHI3L1) raw data, Mean (SD) (YKL-40 (CHI3L1); Day 14, 3 mg): 146819.5 (40114.19) pg/ml; YKL-40 (CHI3L1) raw data, Mean (SD) (YKL-40 (CHI3L1); Day 14, 10 mg): 79975.5 (38590.77) pg/ml; YKL-40 (CHI3L1) least square means % baseline±SEM (YKL-40 (CHI3L1); day 14, 0.3 mg once daily): 84.1±12.5 % baseline; YKL-40 (CHI3L1) least square means % baseline±SEM (YKL-40 (CHI3L1); day 14, 3 mg once daily): 50.2±18.6 % baseline; YKL-40 (CHI3L1) least square means % baseline±SEM (YKL-40 (CHI3L1); day 14, 10 mg once daily): 51.6±10.4 % baseline; SP-D difference in least square means % baseline (95% CI) (SP-D; 10 mg vs placebo, ANCOVA): 4.0 (−41.0–49.1) % baseline; SP-D raw data, Mean (SD) (SP-D; Day 14, 0.3 mg): 38987.4 (10734.36) pg/ml; SP-D raw data, Mean (SD) (SP-D; Day 14, 3 mg): 91473.6 (43437.58) pg/ml; SP-D raw data, Mean (SD) (SP-D; Day 14, 10 mg): 30347 (3552.88) pg/ml; SP-D least square means % baseline±SEM (SP-D; day 14, 0.3 mg once daily): 109.6±16.6 % baseline; SP-D least square means % baseline±SEM (SP-D; day 14, 3 mg once daily): 111.7±18.2 % baseline; SP-D least square means % baseline±SEM (SP-D; day 14, 10 mg once daily): 118.7±17.3 % baseline; abundance or frequencies of CD4+ or CD8+ T cells, Tregs, NK, NKT, B cells, neutrophils or monocytes in BAL (BAL cells): no change in the abundance or frequencies; TIMP-1 difference in least square means % baseline (95% CI) (TIMP-1; 10 mg vs placebo, ANCOVA): 3.8 (−10.6–18.2) % baseline; TIMP1 raw data, Mean (SD) (TIMP-1; Day 14, 0.3 mg): 38084.3 (4735.81) pg/ml; TIMP1 raw data, Mean (SD) (TIMP-1; Day 14, 3 mg): 49880.6 (1032.27) pg/ml; TIMP1 raw data, Mean (SD) (TIMP-1; Day 14, 10 mg): 45458.7 (11908.04) pg/ml; TIMP-1 least square means % baseline±SEM (TIMP-1; day 14, 0.3 mg once daily): 88.6±5.8 % baseline; TIMP-1 least square means % baseline±SEM (TIMP-1; day 14, 3 mg once daily): 107.0±6.0 % baseline; TIMP-1 least square means % baseline±SEM (TIMP-1; day 14, 10 mg once daily): 106.0±5.5 % baseline; Subjects reporting ≥1 TEAE: Serious TEAE (patients with IPF; [1]): 0 n (%); Subjects reporting ≥1 TEAE: TEAE (patients with IPF; [1]): 4 (80.0) n (%); Subjects reporting ≥1 TEAE: TEAE leading to withdrawal (patients with IPF; [1]): 0 n (%); Subjects with TEAE by relationship to study IMP: Almost definite (patients with IPF; [1]): 0 n (%); Subjects with TEAE by relationship to study IMP: Possible (patients with IPF; [1]): 1 (20.0) n (%); Subjects with TEAE by relationship to study IMP: Probable (patients with IPF; [1]): 0 n (%); Subjects with TEAE by relationship to study IMP: Unlikely (patients with IPF; [1]): 1 (20.0) n (%); Subjects with TEAE by relationship to study IMP: Unrelated (patients with IPF; [1]): 2 (40.0) n (%); Subjects with TEAE by severity: Mild (patients with IPF; [1]): 2 (40.0) n (%); Subjects with TEAE by severity: Moderate (patients with IPF; [1]): 2 (40.0) n (%); Subjects with TEAE by severity: Severe (patients with IPF; [1]): 0 n (%); TEAEs (patients with IPF; [1]): 9 n; Subjects reporting ≥1 TEAE: Serious TEAE (patients with IPF; [2]): 0 n (%); Subjects reporting ≥1 TEAE: TEAE (patients with IPF; [2]): 5 (100.0) n (%); Subjects reporting ≥1 TEAE: TEAE leading to withdrawal (patients with IPF; [2]): 0 n (%); Subjects with TEAE by relationship to study IMP: Almost definite (patients with IPF; [2]): 0 n (%); Subjects with TEAE by relationship to study IMP: Possible (patients with IPF; [2]): 1 (20.0) n (%); Subjects with TEAE by relationship to study IMP: Probable (patients with IPF; [2]): 0 n (%); Subjects with TEAE by relationship to study IMP: Unlikely (patients with IPF; [2]): 1 (20.0) n (%); Subjects with TEAE by relationship to study IMP: Unrelated (patients with IPF; [2]): 3 (60.0) n (%); Subjects with TEAE by severity: Mild (patients with IPF; [2]): 4 (80.0) n (%); Subjects with TEAE by severity: Moderate (patients with IPF; [2]): 1 (20.0) n (%); Subjects with TEAE by severity: Severe (patients with IPF; [2]): 0 n (%); TEAEs (patients with IPF; [2]): 10 n; Subjects reporting ≥1 TEAE: Serious TEAE (patients with IPF; [3]): 1 (20.0) n (%); Subjects reporting ≥1 TEAE: TEAE (patients with IPF; [3]): 4 (80.0) n (%); Subjects reporting ≥1 TEAE: TEAE leading to withdrawal (patients with IPF; [3]): 0 n (%); Subjects with TEAE by relationship to study IMP: Almost definite (patients with IPF; [3]): 0 n (%); Subjects with TEAE by relationship to study IMP: Possible (patients with IPF; [3]): 0 n (%); Subjects with TEAE by relationship to study IMP: Probable (patients with IPF; [3]): 0 n (%); Subjects with TEAE by relationship to study IMP: Unlikely (patients with IPF; [3]): 2 (40.0) n (%); Subjects with TEAE by relationship to study IMP: Unrelated (patients with IPF; [3]): 2 (40.0) n (%); Subjects with TEAE by severity: Mild (patients with IPF; [3]): 1 (20.0) n (%); Subjects with TEAE by severity: Moderate (patients with IPF; [3]): 2 (40.0) n (%); Subjects with TEAE by severity: Severe (patients with IPF; [3]): 1 (20.0) n (%); TEAEs (patients with IPF; [3]): 13 n; safety and tolerability (patients with IPF; IPF patients, multiple inhaled doses up to 10 mg): safe and well tolerated; TEAE profile, biochemistry, haematology, vital signs or 12-lead ECG data (patients with IPF; part 2, IPF patients): no treatment- or dose-related trends observed; patients with a TEAE considered possibly related to the study drug (patients with IPF; part 2, diarrhoea and dysgeusia/oropharyngeal pain): two
